Reference: patent EP3714904B1, “IMINODIACETIC ACID SUBSTITUTED CYCLODEXTRINS AS POTENTIATORS OF BETA-LACTAM ANTIBIOTICS” (NATIONAL CENTER FOR SCIENTIFIC RESEARCH "DEMOKRITOS" (NCSRD), priority 2019, dated 2020)

Legend:
[1] = tested on: NDM-1 producing K. pneumoniae strain LA26; assay: Murine sepsis model: single dose treatment scheme-2; type: in vivo, CD-1 mice; details: single dose 10 mg/kg meropenem + 120 mg/kg β-IDACYD
Experimental: Example 9. […] Blood samples were collected at 0, 6 and 24 hours after injection of a single dose of antibiotic (4 infected animals for each timepoint), were serially diluted in normal saline (10^-1 to 10^-9) and plated on MH agar plates which were incubated for 16 hours at 37°C for determination of viable organisms. […] The resulting 3.0log10 reduction in the blood bacterial load in the presence of 120 mg/kg of the inhibitor β-IDACYD compared to the antibiotic itself confirmed the high repotentiation abilities of the inhibitor to carbapenems even for suboptimal antibiotic doses. […] Treatment was given in a form of a single shot 2h after infection and blood was drawn 0h, 6h and 24h post treatment initiation. All groups were of n=10. Error bars are indicative of SEM (n=2 replicates).

[2] = molecular target: T1, MBL containing crude enzyme preparation (Kpn LA-26 NDM-1) (Klebsiella pneumoniae, UniProt C7C422); assay: 1H NMR monitoring of meropenem hydrolysis by MBL crude enzyme preparation; type: biochemical; details: meropenem 0.18 mM, β-IDACYD 1.9 mM, over a 12 h period
T1 construct: an MBL containing crude enzyme preparation (Kpn LA-26 NDM-1, 485 µL); endogenous in cells; host or cells: Klebsiella pneumoniae clinical strain LA-26 (crude enzyme preparation)
T1 sequence (C7C422 29-270 limits assumed): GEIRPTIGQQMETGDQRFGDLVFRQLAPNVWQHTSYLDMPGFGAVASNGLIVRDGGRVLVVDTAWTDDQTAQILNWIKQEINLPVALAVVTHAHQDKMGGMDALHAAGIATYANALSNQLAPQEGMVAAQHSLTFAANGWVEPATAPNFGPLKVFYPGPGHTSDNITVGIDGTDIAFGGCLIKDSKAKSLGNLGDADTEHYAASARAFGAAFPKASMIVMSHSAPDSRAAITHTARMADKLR

[3] = tested on: NDM producing K. pneumoniae clinical strain LA26; assay: Murine sepsis model: 2-hour intervals treatment scheme; type: in vivo, CD-1 mice; details: 30 mg/kg meropenem + 20 mg/kg β-IDACYD every 2 h for 24 h
Experimental: Example 7. […] The animals were rendered neutropenic (<100 neutrophils/mm^3) by intraperitoneal injection of 150 and 100 mg/kg of cyclophosphamide at day -4 and day -1, respectively, before infection. […] The meropenem/ β-IDACYD combination was administrated in all dosing schemes simultaneously. […] Blood samples were taken 0, 6, 24 hours and 7 days after injection of a single dose of antibiotic (five infected animals for each timepoint) were serially diluted in normal saline (10^-1 to 10^-9) and plated on MH agar plates which were incubated for 16 hours at 37°C for determination of viable organisms. All mice that were alive were euthanised 7 days post infection and spleen and liver were harvested. The organs were placed into 1 mL of normal saline on ice and then homogenised. The organ homogenates were then serially diluted in normal saline (10^-1 to 10^-9) and plated on MH agar for CFU enumeration. Without therapy 90% of mice succumbed to the infection within 24 hours. […] Finally, the bacterial load in the spleen was relieved by 4.2 log10 compared to that of the antibiotic itself. In Fig.6 is shown the bacterial load (CFU/mL) (A) and survival percentage (B) of CD-1 mice infected with a lethal dose (10^7 CFU) of NDM-1 producing K. pneumoniae strain LA26. […] Treatment (initiated at 2 hours post infection) was given every 2h for a 24h period and blood was drawn 0 h, 6 h, 24 h and 140 h post treatment initiation. All groups were of n=10. Spleen and liver (C) from n=5 mice were also removed at 140 h post-treatment initiation the bacterial load [log (CFU/organ)] was determined. Error bars are indicative of SEM (n=2 replicates).

Klebsiella pneumoniae = assay: MIC of β-lactams alone or with 50 µM IDACYD against clinical isolates; type: cell-based
Experimental: Further the in-vitro inhibitory activity of IDACYDs was tested against highly resistant pathogens. […] Table 2: Collection of clinical isolates used for in-vitro evaluation

[4] = tested on: NDM-1 producing K. pneumoniae clinical strain LA 26; assay: Murine sepsis model: single dose treatment scheme-1; type: in vivo, CD-1 mice; details: single dose 30 mg/kg meropenem + 120 mg/kg β-IDACYD
Experimental: Example 8. In-vivo murine sepsis model: Single dose treatment scheme-1: Neutropenic 7-8 weeks old CD-1 female mice weighing 29 to 32 grams were infected interperitoneally with a lethal dose (10^7 CFU) of the NDM-1 producing K. pneumoniae clinical strain LA 26 as described previously. […] The meropenem/ β-IDACYD combination was administrated in all dosing schemes simultaneously. Blood samples were taken 0, 6, 24 hours and 3 days after injection of a single dose of antibiotic (five infected animals for each timepoint) and were serially diluted in normal saline (10^-1 to 10^-9) and plated on MH agar plates which were incubated for 16 hours at 37 °C for determination of viable organisms. All mice were euthanised 3 days post infection and spleen and liver were harvested. Organs were placed into 1 mL of normal saline on ice and then homogenised. Organ homogenates were then serially diluted in normal saline (10^-1 to 10^-9) and plated on MH agar plates for CFU enumeration. In the absence of therapy 30% of mice remained alive 70 hours post infection. […] The bacterial burden in the blood 70 hours post treatment was relieved by 4.8log10 in the presence of 120 mg/kg of β-IDACYD compared to that of the antibiotic monotherapy. […] In Fig. 7 is shown the bacterial load (CFU/mL) and survival percentage of CD-1 mice infected with a lethal dose (10^7 CFU) of NDM-1 producing K. pneumoniae strain LA26. […] Treatment was given in a form of a single shot 2h after infection and blood was drawn 0h, 6h, 24h and 70h post treatment initiation. All groups were of n=10. Error bars are indicative of SEM (n=2 replicates).

[5] = isolate LA-34 (VIM, CMY), first entry of Table 3
[6] = isolate LA-34 (VIM, CMY), second entry of Table 3
[7] = isolate LAR-26I/15 (NDM, VIM, CTXM)
[8] = isolate LAR-37II/15 (NDM, VIM, CTXM)
[9] = isolate LAR-38I/15 (VIM, NDM, CTXM)
[10] = isolate LAR-7547 (NDM, VIM, CTXM)
[11] = isolate TZAN-59 (β-lactamase: None)

## CO[C@@H]1[C@@H](OC)[C@H]2O[C@H]3[C@H](OC)[C@@H](OC)[C@@H](O[C@H]4[C@H](OC)[C@@H](OC)[C@@H](O[C@H]5[C@H](OC)[C@@H](OC)[C@@H](O[C@H]6[C@H](OC)[C@@H](OC)[C@@H](O[C@H]7[C@H](OC)[C@@H](OC)[C@@H](O[C@H]8[C@H](OC)[C@@H](OC)[C@@H](O[C@@H]1[C@@H](CN(CC(=O)O)CC(=O)O)O2)O[C@@H]8CN(CC(=O)O)CC(=O)O)O[C@@H]7CN(CC(=O)O)CC(=O)O)O[C@@H]6CN(CC(=O)O)CC(=O)O)O[C@@H]5CN(CC(=O)O)CC(=O)O)O[C@@H]4CN(CC(=O)O)CC(=O)O)O[C@@H]3CN(CC(=O)O)CC(=O)O [β-IDACYD]
[1]
  reduction in the blood bacterial load compared to the antibiotic itself: 3.0 log10
[1]; within 48 h
  mice rescued (survival): 50%
[2]
  hydrolysis of meropenem in the presence of β-IDACYD: no signals of hydrolysis of the drug could be observed
[3]; intraperitoneal, 140 hours
  mice protected (survival): 90%
[3]; 140 h
  reduction of the bacterial load in the spleen compared to the antibiotic itself: 4.2 log10
[3]; 140 hours post treatment initiation
  reduction of the bacterial load in blood compared to meropenem monotherapy: 4.0 log10
Klebsiella pneumoniae; isolate 6/100 (VIM)
  Imipenem /50µM β-IDACYD MIC: 1 µg/mL
  Meropenem /50µM β-IDACYD MIC: 1 µg/mL
Klebsiella pneumoniae; isolate 2489 (NDM)
  Imipenem /50µM β-IDACYD MIC: 0.5 µg/mL
  Meropenem /50µM β-IDACYD MIC: 1 µg/mL
Klebsiella pneumoniae; isolate 2685 (VIM, CMY, CTXM)
  Imipenem /50µM β-IDACYD MIC: 0.5 µg/mL
  Meropenem /50µM β-IDACYD MIC: <0.25 µg/mL
Klebsiella pneumoniae; isolate ALX-47 (OXA-48,CTX-M)
  Ceftazidime/ 50µM β-IDACYD MIC: >256 µg/mL
  Imipenem /50µM β-IDACYD MIC: 4 µg/mL
  Meropenem /50µM β-IDACYD MIC: 4 µg/mL
Klebsiella pneumoniae; isolate ESDY-1780 (VIM, KPC)
  Imipenem /50µM β-IDACYD MIC: 8 µg/mL
  Meropenem /50µM β-IDACYD MIC: 32 µg/mL
Klebsiella pneumoniae; isolate ESDY-2681 (VIM-27)
  Imipenem /50µM β-IDACYD MIC: <0.125 µg/mL
  Meropenem /50µM β-IDACYD MIC: <0.25 µg/mL
Klebsiella pneumoniae; isolate ESDY-5742 (IMP)
  Ceftazidime/ 50µM β-IDACYD MIC: 1 µg/mL
  Imipenem /50µM β-IDACYD MIC: <0.125 µg/mL
  Meropenem /50µM β-IDACYD MIC: <0.25 µg/mL
Klebsiella pneumoniae; isolate EY-20S (CMY, SHV)
  Imipenem /50µM β-IDACYD MIC: 2 µg/mL
  Meropenem /50µM β-IDACYD MIC: 4 µg/mL
Klebsiella pneumoniae; isolate IT-17829 (CTXM, SHV)
  Imipenem /50µM β-IDACYD MIC: 0.5 µg/mL
  Meropenem /50µM β-IDACYD MIC: 32 µg/mL
Klebsiella pneumoniae; isolate L078/11 (KPC)
  Imipenem /50µM β-IDACYD MIC: 16 µg/mL
  Meropenem /50µM β-IDACYD MIC: 64 µg/mL
Klebsiella pneumoniae; isolate LA-26 (NDM)
  Imipenem /50µM β-IDACYD MIC: <0.125 µg/mL
  Meropenem /50µM β-IDACYD MIC: <0.25 µg/mL
Klebsiella pneumoniae; isolate LA-27 (NDM, CTXM)
  Imipenem /50µM β-IDACYD MIC: <0.125 µg/mL
  Meropenem /50µM β-IDACYD MIC: <0.25 µg/mL
Klebsiella pneumoniae; isolate LA-28 (NDM, CTXM)
  Ceftazidime/ 50µM β-IDACYD MIC: 32 µg/mL
  Imipenem /50µM β-IDACYD MIC: <0.125 µg/mL
  Meropenem /50µM β-IDACYD MIC: <0.25 µg/mL
Klebsiella pneumoniae; [5]
  Imipenem /50µM β-IDACYD MIC: <0.5 µg/mL
  Meropenem /50µM β-IDACYD MIC: 0.25 µg/mL
Klebsiella pneumoniae; [6]
  Imipenem /50µM β-IDACYD MIC: 0.25 µg/mL
  Meropenem /50µM β-IDACYD MIC: 0.25 µg/mL
Klebsiella pneumoniae; isolate LA-38 (NDM)
  Imipenem /50µM β-IDACYD MIC: <0.125 µg/mL
  Meropenem /50µM β-IDACYD MIC: 0.5 µg/mL
Klebsiella pneumoniae; isolate LA-82/16 (VIM, SHV)
  Ceftazidime/ 50µM β-IDACYD MIC: 32 µg/mL
  Imipenem /50µM β-IDACYD MIC: <0.125 µg/mL
  Meropenem /50µM β-IDACYD MIC: 0.25 µg/mL
Klebsiella pneumoniae; isolate LA-109/16 (VIM, CTXM)
  Ceftazidime/ 50µM β-IDACYD MIC: 32 µg/mL
  Imipenem /50µM β-IDACYD MIC: <0.125 µg/mL
  Meropenem /50µM β-IDACYD MIC: <0.25 µg/mL
Klebsiella pneumoniae; isolate LA-419/16 (NDM,CTXM)
  Imipenem /50µM β-IDACYD MIC: <0.125 µg/mL
  Meropenem /50µM β-IDACYD MIC: <0.25 µg/mL
Klebsiella pneumoniae; isolate LA-470/17 (NDM)
  Imipenem /50µM β-IDACYD MIC: 8 µg/mL
  Meropenem /50µM β-IDACYD MIC: 32 µg/mL
Klebsiella pneumoniae; [7]
  Imipenem /50µM β-IDACYD MIC: 0.125 µg/mL
  Meropenem /50µM β-IDACYD MIC: 0.5 µg/mL
Klebsiella pneumoniae; [8]
  Imipenem /50µM β-IDACYD MIC: <0.125 µg/mL
  Meropenem /50µM β-IDACYD MIC: <0.25 µg/mL
Klebsiella pneumoniae; [9]
  Imipenem /50µM β-IDACYD MIC: <0.125 µg/mL
  Meropenem /50µM β-IDACYD MIC: <0.25 µg/mL
Klebsiella pneumoniae; isolate LAR-40II/15 (KPC)
  Imipenem /50µM β-IDACYD MIC: 16 µg/mL
  Meropenem /50µM β-IDACYD MIC: 64 µg/mL
Klebsiella pneumoniae; isolate LAR-2873 (VIM-12)
  Imipenem /50µM β-IDACYD MIC: <0.125 µg/mL
  Meropenem /50µM β-IDACYD MIC: <0.25 µg/mL
Klebsiella pneumoniae; isolate LAR-4011/15
  Ceftazidime/ 50µM β-IDACYD MIC: 32 µg/mL
Klebsiella pneumoniae; [10]
  Imipenem /50µM β-IDACYD MIC: 4 µg/mL
  Meropenem /50µM β-IDACYD MIC: 16 µg/mL
Klebsiella pneumoniae; isolate SEC-2 (VIM)
  Imipenem /50µM β-IDACYD MIC: 2 µg/mL
  Meropenem /50µM β-IDACYD MIC: 2 µg/mL
Klebsiella pneumoniae; isolate SEC-4 (VIM)
  Imipenem /50µM β-IDACYD MIC: 2 µg/mL
  Meropenem /50µM β-IDACYD MIC: 1 µg/mL
Klebsiella pneumoniae; [11]
  Imipenem /50µM β-IDACYD MIC: 0.5 µg/mL
  Meropenem /50µM β-IDACYD MIC: 0.5 µg/mL
Klebsiella pneumoniae; isolate UoA 12/227 (VIM)
  Ceftazidime/ 50µM β-IDACYD MIC: <0.25 µg/mL
  Imipenem /50µM β-IDACYD MIC: <0.125 µg/mL
  Meropenem /50µM β-IDACYD MIC: <0.25 µg/mL
Klebsiella pneumoniae; isolate UoA 1995 (VIM)
  Ceftazidime/ 50µM β-IDACYD MIC: <0.25 µg/mL
  Imipenem /50µM β-IDACYD MIC: <0.125 µg/mL
  Meropenem /50µM β-IDACYD MIC: <0.25 µg/mL
[4]
  reduction of bacterial load in the liver: 1.4 log10
  reduction of bacterial load in the spleen: 3.8 log10
[4]; 70 hours
  mice rescued (survival): 60%
[4]; 70 hours post treatment
  reduction of bacterial burden in the blood compared to antibiotic monotherapy: 4.8 log10
